Reference: US7704508B2, “Babesia subtilisin” (New York Blood Center, priority 2007, dated 2010)
Starred links: 1 amine or outer side, 2 acyl side, 3 side chain; linkers in the order of their positions; H or OH if unused. Non-standard residues stand in square brackets, D forms with d. Residues, ends and D or L forms follow the SMILES beside them. ξ: configuration not given here. *: point of attachment. Sta = CC(C)C[C@H](N)[C@@H](O)CC(=O)O; Isovaleryl = CC(C)CC(=O)*; ξF = NC(Cc1ccccc1)C(=O)O; CO = O=C([*:1])[*:2]

Tests used:
B. divergens [1] = assay: Effect of protease inhibitors on B. divergens growth in culture (parasitemia by YOYO-1 flow cytometry, T72); assay type: cell-based; conditions: for inhibition at 50 µM / inhibition at 100 µM / Growth T72 50 μM (inhibition) / Growth T72 100 μM (inhibition): T72; for inhibition of growth / decrease of parasitemia after 72 h: 50 and 100 μM, compared to control
Protocol: (§1) Parasitemia for B. divergens was assessed in human RBCs using a modification of the methods of Barkan et al. (Int. J. Parasitol. 30:649-53, 2000) and Jimenez-Diaz et al. (Cytometry A 67:27-36, 2005), both of which are incorporated by reference herein for all they contain regarding assessment of parasitemia. DNA content was measured after staining with YOYO-1 (a high affinity cell-impermeant dye that increases green fluorescence by 1000-fold when bound to dsDNA) observed infected erythrocytes compared with non-infected human erythrocytes for B. divergens.
(§2) To assess the effect of various protease inhibitors, parasitemia was assessed in 180 parasite samples taken at different time points (0 and after 10, 24, 48 and 72 h). In parallel with the evaluation of the parasitemia by FACS (fluorescence activated cell sorting), 60 random parasite samples were analyzed by light microscopy using Giemsa-stained thin blood smears, with 500-1000 RBCs being counted for each smear. […] Integration of the numbers of events represented in the right peak provides a direct estimate of the parasitemia, where one infected cell is one event.
(§3) Protease inhibitors were tested for their ability to inhibit the invasion and growth of B. divergens in vitro.
(§4) The effects of EGTA, a chelating agent capable of binding metal ions including Ca^2+, on the invasion and growth of B. divergens was tested. EGTA cannot permeate the biological membrane of cells so its effects are only on the chelation of extracellular ions. As many serine proteases require Ca^2+ for activity, EGTA also functions as a serine protease inhibitor.

B. divergens [2] = assay: Effect of protease inhibitors on B. divergens erythrocyte invasion (parasitemia by YOYO-1 flow cytometry, T10); assay type: cell-based; conditions: for inhibition at 50 µM / inhibition at 100 µM: Erythrocyte; for inhibition of invasion: 50 and 100 μM, relative to control
Protocol: as §1, §2, §3, §4

BdSUB-1 = assay: Effect of brefeldin A on BdSUB-1 processing during secretory transport (western blot); assay type: cell-based, B. divergens; conditions: 40 μg/ml BFA in methanol, 1 hour, 37° C., western blot with PfSUB1m antibodies
Protocol: Monitoring the effect of brefeldin A. The effects of brefeldin A (BFA, Sigma) on BdSUB-1 processing during secretory transport was monitored using ^35S-radiolabeled B. divergens cultures. The drug was prepared as a stock solution in methanol at 1 mg ml^−1 and then added to parasite cultures to a final concentration of 40 μg ml^−1 BFA. Methanol was added to the control cultures and cells were cultured at 37° C. in a […], 5% nitrogen and 5% oxygen for 1 hour. Samples were washed in PBS, lysed in saponin buffer and analyzed by western blot using the anti-PfSUB1m antibodies.
BdSUB-1 undergoes post-translational processing during secretory transport. […] In order to examine whether BdSUB-1 undergoes intracellular post-translational processing steps within the parasite secretory pathway, brefeldin A (BFA) was employed, which blocks secretory transport of proteins from the endoplasmic reticulum (ER) to the Golgi apparatus. Western-blot analysis was performed on parasite lysates that were obtained from cultures grown in the presence or absence of BFA, using anti-PfSUB1m antibodies. […] Thus, BdSUB-1 is initially synthesized as a large precursor protein of ˜78 kDA and cleavage of the signal peptide results in the formation of p75, which is the largest detectable protein seen in the assays. This p75 is then processed to p55, which then gets converted to p48 in the Golgi. […]

SMILES: CC(C)[C@H](NC(=O)[C@H](CCCNC(=N)N)NC(=O)NC(Cc1ccccc1)C(=O)O)C(=O)N[C@H](C=O)CCCNC(=N)N (stereo partly drawn) [Antipain, (1-carboxy-2-phenylethyl)carbamoyl-L-arginyl-L-valylargininal] ({ξF-CO}-Arg-Val-Arg-aldehyde)
- inhibition at 50 µM (B. divergens [1]): 15 ± 8.4%
- inhibition at 100 µM (B. divergens [1]): 16 ± 8.5%
- inhibition at 50 µM (B. divergens [2]; T10): 33 ± 6.5%
- inhibition at 100 µM (B. divergens [2]; T10): 37.7 ± 14.1%

SMILES: CC(C)CC(=O)N[C@H](C(=O)N[C@H](C(=O)N[C@@H](CC(C)C)[C@@H](O)CC(=O)N[C@@H](C)C(=O)N[C@@H](CC(C)C)[C@@H](O)CC(=O)O)C(C)C)C(C)C [Pepstatin, pepstatin] (Isovaleryl-VV[Sta]A[Sta]-OH)
- inhibition at 50 µM (B. divergens [1]): 9.1 ± 3.1%
- inhibition at 100 µM (B. divergens [1]): 16 ± 9.2%
- inhibition at 50 µM (B. divergens [2]; T10): 17 ± 6.4%
- inhibition at 100 µM (B. divergens [2]; T10): 2 ± 0.8%

SMILES: O=C(O)CN(CCOCCOCCN(CC(=O)O)CC(=O)O)CC(=O)O [EGTA, ethylene glycol tetraacetic acid]
- Growth T72 1 mM (inhibition) (B. divergens [1]): 82.0 ± 0.4%
- Growth T72 3 mM (inhibition) (B. divergens [1]): 83.0 ± 0.5%
- growth of the parasite after 72 h, lower than the control (B. divergens [1]): 83%
- Invasion T10 1 mM (inhibition) (B. divergens [2]; 1 mM, T10): 48.0 ± 3.1%
- Invasion T10 3 mM (inhibition) (B. divergens [2]; 3 mM, T10): 52.0 ± 2.6%
- reversal of inhibition of invasion and growth by Ca2+ (B. divergens [2]; Ca2+ added in the same concentration as EGTA): completely reversed
- percentage of inhibition on invasion (B. divergens [2]; EGTA 1, 2 and 3 mM): 50%

SMILES: O=S(=O)(F)Cc1ccccc1 [PMSF, phenylmethylsulfonyl fluoride]
- Growth T72 50 μM (inhibition) (B. divergens [1]): 45.0 ± 5.2%
- Growth T72 100 μM (inhibition) (B. divergens [1]): 46.7 ± 3.3%
- Invasion T10 50 μM (inhibition) (B. divergens [2]; T10): 28.0 ± 8.9%
- Invasion T10 100 μM (inhibition) (B. divergens [2]; T10): 35.0 ± 18.0%

SMILES: C[C@H]1CCC/C=C/[C@@H]2C[C@H](O)C[C@H]2[C@H](O)/C=C/C(=O)O1 [BFA, brefeldin A]
- BdSUB-1 processing / secretory transport (BdSUB-1): blocked the secretory transport of BdSUB-1 from the ER to the Golgi apparatus

SMILES: O=c1oc(Cl)c(Cl)c2ccccc12 [3,4 DCI]
- Growth T72 50 μM (inhibition) (B. divergens [1]): 70.7 ± 1.4%
- Growth T72 100 μM (inhibition) (B. divergens [1]): 76.0 ± 2.3%
- inhibition of growth / decrease of parasitemia after 72 h (B. divergens [1]): 76%
- Invasion T10 50 μM (inhibition) (B. divergens [2]; T10): 38.0 ± 2.0%
- Invasion T10 100 μM (inhibition) (B. divergens [2]; T10): 43.0 ± 1.2%
- inhibition of invasion (B. divergens [2]): 40%

SMILES: NCCc1ccc(S(=O)(=O)F)cc1 [ABSF, 4-(2-aminoethyl)benzenesulfonyl fluoride]
- Growth T72 50 μM (inhibition) (B. divergens [1]): 8.8 ± 7.4%
- Growth T72 100 μM (inhibition) (B. divergens [1]): 28.0 ± 5.0%
- Invasion T10 50 μM (inhibition) (B. divergens [2]; T10): 3.3 ± 6.8%
- Invasion T10 100 μM (inhibition) (B. divergens [2]; T10): 34.0 ± 9.0%

SMILES: Cc1ccc(S(=O)(=O)N[C@@H](CCCCN)C(=O)CCl)cc1 [TLCK, N-α-tosyl-L-lysine chloromethyl ketone]
- Growth T72 50 μM (inhibition) (B. divergens [1]): 92.1 ± 3.0%
- Growth T72 100 μM (inhibition) (B. divergens [1]): 94.1 ± 0.9%
- inhibition of growth / decrease of parasitemia after 72 h (B. divergens [1]): approximately 90%
- morphology of the parasites during invasion and growth inhibition assay (B. divergens [1]; microscopy of treated cultures): no alteration in the morphology of the parasites
- Invasion T10 50 μM (inhibition) (B. divergens [2]; T10): 64.0 ± 3.1%
- Invasion T10 100 μM (inhibition) (B. divergens [2]; T10): 60.0 ± 2.0%
- inhibition of invasion (B. divergens [2]): ~60%
